melting point: 100 °C
Compound: CC(O)C1=CC(=C(Br)Br)OC1=O (stereo not shown) [Example 7, 5-(Dibromomethylene)-3-(1-hydroxyethyl)-2(5H)-furanone]

Source: patent US7378535B2, “Production of furanones” (Unisearch Limited, A.C.N., priority 1998, dated 2008)
